This is an account of results in ChEMBL document CHEMBL3044594, “Comparison of the inhibitory action of synthetic capsaicin analogues with various NADH-ubiquinone oxidoreductases” (Biochim Biophys Acta, 1996).

Test [1] has as its system Escherichia coli. Briefly: Inhibition of Escherichia coli GR19N NDH2 assessed as […] reductase activity at 100 uM relative to control.
Test [2] concerns Solanum tuberosum. In words: Inhibition of Solanum tuberosum (potato) submitochondrial particle NDH1 assessed as deaminoNADH-DB reductase activity.
The test system of test [3] is Solanum tuberosum. Briefly: Inhibition of Solanum tuberosum (potato) inner mitochondrial membrane NDH2 assessed as […] reductase activity at 100 uM relative to control.

The source made the active and inactive calls. The calls are words filed in the database; no cut-off is given here.

As usually defined, the inhibition is the share of the control response that was lost under treatment.

As for `COc1ccc(CNC(=O)c2ccc(C(C)(C)C)cc2)cc1OC`, the inhibition entry in test [1] and in test [3] was “inactive” each time. The pI50 result in test [2] was “inactive”. For the compound `CCCCCCCCCCCC(=O)NCc1ccc(OC)cc1OC`, the inhibition entry in test [1] and in test [3] was “inactive” in each case. For the compound `CCCCCCCOc1ccc(C(=O)NCc2ccc(OC)c(OC)c2)cc1`, the inhibition in test [1] came to 60%. The inhibition entry in test [3] is “inactive”.

As to `COc1ccc(CNC(=O)c2ccccc2C)cc1OC`, the inhibition entry in test [1] and in test [3] was “inactive” throughout. Also, the pI50 entry in test [2] was “inactive”.

Take `COc1ccc(CN(C)C(=O)c2ccc(Oc3ccc(C(C)(C)C)cc3)cc2)cc1OC`: the inhibition in test [1] came to 40%. Besides, the inhibition entry in test [3] is “inactive”. Consider `CCCCCCCCCCCC(=O)NCc1ccc(C)c(C)c1`, for which the inhibition in test [1] turned out to be 60%. Besides, the inhibition result in test [3] was “inactive”. Regarding `CCCCCCCCCCNC(=O)CCc1ccc(OC)c(OC)c1`, in test [1], the inhibition was 40%. The inhibition result in test [3] is “inactive”.

`CCCCCCCCCCCC(=O)N(C)Cc1ccc(OC)c(OC)c1`: the inhibition result in test [1] is “inactive”.

On to `CCCCCCCCCCCC(=O)NCc1cccc(OC)c1OC`, for which the inhibition result in test [1] and in test [3] was “inactive” each time.

Take `CCCCCCCCCCCC(=O)N1CCc2cc(OC)c(OC)cc2C1`: the inhibition entry in test [1] is “inactive”.

As for `CCCCCCCOc1cccc(C(=O)NCc2ccc(OC)c(OC)c2)c1`, the inhibition in test [1] came out at 60%. For the same compound, the inhibition entry in test [3] was “inactive”. On to `COc1ccc(CNC(=O)c2ccccc2)cc1OC`, for which the inhibition entry in test [1] and in test [3] was “inactive” throughout. Moreover, the pI50 result in test [2] is “inactive”. For `CCCCCCCCCCCCNC(=O)c1ccc(OC)c(OC)c1`, the inhibition result in test [1] and in test [3] was “inactive” throughout.

As to `COc1ccc(CNC(=O)c2ccc(-c3ccccc3)cc2)cc1OC`, the inhibition result in test [1] and in test [3] was “inactive” in each case. As for `CCCCCCCCCCCC(=O)NCc1ccc2c(c1)OCO2`, the inhibition in test [1] came to 60%. Further, in test [3], the inhibition entry is “inactive”. Regarding `CCCCCCCCCCCC(=O)NCc1ccc(Cl)c(Cl)c1`, the inhibition in test [1] stood at 70%. The inhibition entry in test [3] was “inactive”. In the same order, the values of `CCCCCCCCCCCC(=O)NCc1ccccc1OC` are “inactive” and “inactive”. For `COc1ccc(CNC(=O)c2ccc(Oc3ccccc3C)cc2)cc1OC`, the inhibition in test [1] stood at 90%. Further, the pI50 result in test [2] is “inactive”. For the compound `CCCCCCCCCCOc1ccc(C(=O)NCc2ccc(OC)c(OC)c2)cc1`, in test [1], the inhibition was found to be 70%. The pI50 entry in test [2] is “inactive”. In addition, the inhibition entry in test [3] is “inactive”.

In the case of `CCCCCCCOc1ccc(C(=O)NCc2ccc(OC)c(OC)c2)c(O)c1`, the inhibition in test [1] amounted to 90%; in test [3] it was 30%.

As to `CCCCCCCCCCCC(=O)NCc1cc(OC)cc(OC)c1`, the inhibition result in test [1] and in test [3] was “inactive” each time. Consider `Cc1nn(C)c(Oc2ccccc2)c1/C=N/OCc1ccc(C(=O)OC(C)(C)C)cc1`, for which the inhibition in test [1] came to 60%. On to `CCCCCCCCCCCC(=O)NCc1cc(C)ccc1C`, for which, in test [1], the inhibition was found to be 60%. In test [3], the inhibition result was “inactive”.

`CCCCCCCCCCCC(=O)NCc1ccccc1`: the inhibition entry in test [1] and in test [3] was “inactive” each time. For `COc1ccc(CNC(=O)c2ccc(Oc3ccc(C(C)(C)C)cc3)cc2)cc1OC`, the inhibition amounted to 60% in test [1] and 100% in test [3]. For `CCCCCCCCc1ccc(C(=O)NCc2ccc(OC)c(OC)c2)cc1`, in test [1], the inhibition was found to be 50%. For the same compound, the inhibition entry in test [3] was “inactive”.

Take `CCCCCCCCCC(=O)NCCCc1ccc(OC)c(OC)c1`: in test [1], the inhibition stood at 40%. Besides, in test [2], the pI50 result was “inactive”. Moreover, in test [3], the inhibition entry is “inactive”. As for `CCCCc1ccc(Oc2ccc(C(=O)NCc3ccc(OC)c(OC)c3)cc2)cc1`, the inhibition in test [1] was found to be 60%. Also, the inhibition result in test [3] is “inactive”. In the same order, the values of `COc1ccc(CNC(=O)c2ccc(Oc3ccc(Cc4ccccc4)cc3)cc2)cc1OC` are 50% and “inactive”. On to `CCCCCCCCCCCC(=O)NCc1ccc(O)c(OC)c1`, for which, in test [1], the inhibition amounted to 70%. For the same compound, the pI50 entry in test [2] was “inactive”. Further, the inhibition result in test [3] is “inactive”. For the compound `CCCCCCCCCCC(=O)NCCc1ccc(OC)c(OC)c1`, the inhibition result in test [1] and in test [3] was “inactive” each time. Turning to `CCCCCCCCCCCC(=O)NCc1cccc(OC)c1`, the inhibition result in test [1] was “inactive”. Besides, the inhibition in test [3] came to 60%.

With `CCC(C)(C)c1ccc(Oc2ccc(C(=O)NCc3ccc(OC)c(OC)c3)cc2)cc1`, the inhibition in test [1] is 60%. With `CCCCc1ccc(C(=O)NCc2ccc(OC)c(OC)c2)cc1`, the inhibition result in test [1] and in test [3] was “inactive” in each case. Besides, the pI50 result in test [2] is “inactive”.

`CCCCCCCCCCCC(=O)NCc1cc(OC)ccc1OC`: the inhibition entry in test [1] is “inactive”. Besides, the inhibition in test [3] worked out at 100%. For `CCCCCCCCc1ccc(C(=O)N(C)Cc2ccc(OC)c(OC)c2)cc1`, the inhibition in test [1] stood at 60%.

Consider `CCCCCCCCCCCC(=O)NCc1ccc(OC)c(OC)c1`, for which, in test [1], the inhibition result was “inactive”. As for `COc1ccc(CNC(=O)c2ccc(Oc3ccc(C)cc3)cc2)cc1OC`, the inhibition result in test [1] and in test [3] was “inactive” throughout. Besides, the pI50 result in test [2] was “inactive”. `COc1ccc(CNC(=O)c2ccc3ccccc3c2)cc1OC`: the inhibition entry in test [1] and in test [3] was “inactive” in each case. On to `COc1ccc(CNC(=O)c2ccc(C)cc2)cc1OC`, for which the inhibition result in test [1] and in test [3] was “inactive” throughout. Take `COc1ccc(CNC(=O)c2ccc(OCc3ccccc3)cc2)cc1OC`: the inhibition result in test [1] and in test [3] was “inactive” each time. Besides, the pI50 entry in test [2] is “inactive”. As for `CCCCCCCCCCCNC(=O)Cc1ccc(OC)c(OC)c1`, the inhibition result in test [1] and in test [3] was “inactive” in each case. For the compound `CCCCCCCCc1ccc(C(=O)NCc2cc(OC)ccc2OC)cc1`, the inhibition in test [1] is 60%. For the compound `COc1ccc(CNC(=O)c2cccc3ccccc23)cc1OC`, the inhibition entry in test [1] and in test [3] was “inactive” in each case. As to `CCCCCCCCCCCCNCc1ccc(OC)c(OC)c1`, in test [1], the inhibition entry is “inactive”. As to `COc1cc(CNC(=O)CCCC/C=C/C(C)C)ccc1O`, in test [1], the inhibition stood at 20%. In addition, the inhibition result in test [3] was “inactive”. For `CCCCCCCCCCCCC(=O)Nc1ccc(OC)c(OC)c1`, the inhibition result in test [1] and in test [3] was “inactive” throughout. `COc1ccc(OC)c(CNC(=O)c2ccc(Oc3ccc(C(C)(C)C)cc3)cc2)c1`: the inhibition in test [1] came to 60%. Consider `CCCCCCCCCCCC(=O)NCc1ccc(OC)cc1`, for which the values for the inhibition in test [1] and in test [3] were 80% and 100%, respectively. Take `C=C(C)[C@H]1Cc2c(ccc3c2O[C@@H]2COc4cc(OC)c(OC)cc4[C@@H]2C3=O)O1`: the inhibition in test [1] came out at 70%. For the same compound, the inhibition entry in test [3] was “inactive”. Turning to `C/C=C(\C)[C@H](O)[C@H](C)/C=C(C)/C=C/C/C(C)=C/Cc1nc(OC)c(OC)c(O)c1C`, the inhibition in test [1] stood at 50%. On the same count and under the same terms, the same measure for `CCCCCCCCCCCC(=O)N(C)Cc1cc(OC)ccc1OC`: 30%. On to `COc1ccc(CNCc2ccc(Oc3ccc(C(C)(C)C)cc3)cc2)cc1OC`, for which the inhibition in test [1] is 60%. Moreover, in test [3], the inhibition entry is “inactive”.
